Patent US20250275924A1, “Anticholinergic Agents and Muscarinic Agonists for the Treatment of Demodex Related Conditions” (ATTILLAPS HOLDINGS INC., priority 2022, published 2025)
Where two headings read alike, the source gives them in different places.

Experiments:
Demodex mites = assay: in vitro assay of Demodex mite paralysis and/or killing (survival time)
Description: FIG. 1A-1E is a table summary of an in vitro assay of various agents on Demodex mites survival time and paralysis.
FIG. 1A-1E is a summary of various agents tested in an in vitro assay of Demodex mite paralysis and/or killing. The efficacy of various agents are evaluated in Demodex characterization and/or survival time experiments, including in terms of LT50 (time at which 50% of Demodex mites are killed) and/or associated time (in hours: min or total minutes).

[1] = oral paroxetine, rosacea; cited from earlier work
[2] = grouping of active agents in the summary, data in FIG. 1A-1E (not reproduced)

Row | Structure (SMILES) | paralyzes Demodex mites (Demodex mites; [2]) | kills Demodex mites (Demodex mites; [2]) | further results
1 | Clc1ccc2c(c1)C(N1CCNCC1)=Nc1ccccc1O2 [amoxapine] | paralyzes Demodex mites | – | –
2 | CN1[C@@H]2CC[C@H]1C[C@@H](OC(c1ccccc1)c1ccccc1)C2 [benztropine] | – | kill Demodex mites | –
3 | CC(NC(C)(C)C)C(=O)c1cccc(Cl)c1 (centres unmarked) [bupropion] | – | kill Demodex mites | –
4 | CN(C)CCC(c1ccc(Cl)cc1)c1ccccn1 (centres unmarked) [chlorpheniramine] | paralyzes Demodex mites | – | –
5 | C[N+]12CCC(CC1)C(OC(=O)C(O)(c1ccccc1)c1ccccc1)C2 (centres unmarked) [clidinium] | paralyzes Demodex mites | – | –
6 | COc1ccc2c(c1)[C@]13CCCC[C@@H]1[C@H](C2)N(C)CC3 [dextromethorphan] | – | kill Demodex mites | –
7 | CN(C)CCOC(c1ccccc1)c1ccccc1.Cn1c(=O)c2[nH]c(Cl)nc2n(C)c1=O [dimenhydrinate] | paralyzes Demodex mites | – | –
8 | CC(C)C(=O)Oc1ccc(CO)cc1[C@H](CCN(C(C)C)C(C)C)c1ccccc1 [fesoterodine] | paralyzes Demodex mites | – | –
9 | COCCCC/C(=N\OCCN)c1ccc(C(F)(F)F)cc1 [fluvoxamine] | – | kill Demodex mites | –
10 | CN(C)CCCN1c2ccccc2CCc2ccccc21 [imipramine] | – | kill Demodex mites | –
11 | CNC1(C)C2CCC(C2)C1(C)C (centres unmarked) [mecamylamine] | – | kill Demodex mites | –
12 | CNCCC=C1c2ccccc2CCc2ccccc21 [nortriptyline] | paralyzes Demodex mites | – | –
13 | Fc1ccc([C@@H]2CCNC[C@H]2COc2ccc3c(c2)OCO3)cc1 [paroxetine] | paralyzes Demodex mites | – | onset of Demodex mite paralysis (Demodex mites; 1% paroxetine): within the first hour; period of Demodex mite paralysis (Demodex mites; 1% paroxetine): at least 12 hours; patients indicative of improved clinical symptoms [1]: 42.9%; tolerability [1]: well-tolerated
14 | CC(CN1c2ccccc2Sc2ccccc21)N(C)C (centres unmarked) [promethazine] | – | kill Demodex mites | –
15 | OCCOCCN1CCN(C2=Nc3ccccc3Sc3ccccc32)CC1 [quetiapine] | – | – | paralyzes Demodex mites (Demodex mites): paralyzes Demodex mites
16 | OC(CCN1CCCCC1)(c1ccccc1)C1CCCCC1 (centres unmarked) [trihexyphenidyl] | paralyzes Demodex mites | – | –
